Reference: ChEMBL document CHEMBL5233236, “p62 as a therapeutic target for tumor” (Eur J Med Chem, 2020)

Columns and labels:
[1] = Inhibition of full length human GST tagged LC3 (1 to 120 residues)/p62 (unknown origin) interaction expressed in Escherichia coli BL21 Star (DE3) incubated for 2 hrs by SPR based competitive binding assay
MM1.S [2] = experiment: Inhibition of cell growth in human MM1.S cells incubated for 48 hrs by MTT assay; assay type: functional, cell-based
MM1.S [3] = experiment: Inhibition of cell growth in human MM1.S cells; assay type: functional

SMILES	IC50 [1] [µM]	IC50 (MM1.S [2]) [µM]	other results
O=C(O)CSc1cc(NS(=O)(=O)c2ccc(Br)cc2)c2ccccc2c1O	0.9	–	–
OCCNCc1ccc(OCc2ccc(F)cc2)c(OCc2ccc(F)cc2)c1	–	4.6	–
Fc1ccc(COc2ccc(CNCC3CCCCC3)cc2OCc2ccc(F)cc2F)c(F)c1	–	–	IC50 (MM1.S [3]): 0.84 µM

Second part, led by results:

IC50 [1] [µM]	IC50 (MM1.S [2]) [µM]	SMILES	other results
–	6.19	OCCNCc1ccc(OCc2ccccc2)c(OCc2ccccc2)c1	–
2	–	O=C1CC(=O)c2ccc3c4c(ccc1c24)C(=O)CC3=O	–
